Read-outs that look alike come from different tables or passages of the source.
Experiments:
[1] = target: T1, mitochondrial pyruvate carrier (MPC) (Mus musculus, UniProt P63030+Q9D023); assay: Seahorse XFe96 Pyr-driven respiration in rPFO-permeabilized 4T1 cells; format: cell-based, murine; conditions: for effect on Pyr-driven respiration: Pyr/Mal, candidate compounds 1 μM
T1 construct: host or cells: 4T1 murine breast cancer cells, rPFO-permeabilized
T1 sequence (P63030 1-109): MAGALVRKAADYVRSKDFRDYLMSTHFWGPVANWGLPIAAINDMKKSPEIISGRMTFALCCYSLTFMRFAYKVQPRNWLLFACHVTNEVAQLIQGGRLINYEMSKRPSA
T1 sequence (Q9D023 1-127): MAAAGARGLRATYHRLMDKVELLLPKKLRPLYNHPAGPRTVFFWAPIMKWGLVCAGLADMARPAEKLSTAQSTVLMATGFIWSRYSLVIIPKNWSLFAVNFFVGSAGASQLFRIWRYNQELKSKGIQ
Experimental: After validating the ability of rPFO to permeabilize 4T1 cells without damaging mitochondria, we sought to investigate the ability of candidate compounds to inhibit Pyr-driven respiration in these cells (Fig. 1, D–G). In this regard, 4T1 cells were seeded in Seahorse XFe96 well plates and were incubated to reach confluence (∼18–24 h) in growth media (+serum). Growth media were then aspirated, and cells were washed with MAS buffer to remove serum and endogenous metabolic substrates. Serum- and substrate-starved cells were then incubated for equilibration in MAS buffer in a non-CO2 incubator. Inhibitors, rPFO, and substrate milieus were prepared in MAS buffer to be injected in succession to allow for real-time observation of the effects of compound-treated cultures on oxygen consumption rates (OCRs) when compared with vehicle (dimethyl sulfoxide [DMSO])-treated cells. Equilibrated intact cells were allowed to establish basal respiratory rates, followed by the injection of candidate compounds C1 to C4 at varying dose-titrated concentrations, respectively, and acute decreases in OCR were observed (Fig. 1, D–G). Compound exposure was performed in intact cells to avoid influence of rPFO on acute cellular targets. Cells were then exposed to rPFO, followed by the carbonyl cyanide-p-trifluoromethoxyphenylhydrazone (FCCP)–stimulated Pyr substrate milieu, which consisted of Pyr, malate (Mal), and dichloroacetate (DCA) to fuel uninhibited Pyr respiratory flux and maximal respiration. Mal and DCA were included to allow for continuous TCA cycle function without acetyl CoA feedback–mediated inhibition (Mal) or Pyr dehydrogenase–regulated inhibition (DCA) of Pyr uptake. Here, we observed a dose-dependent inhibition of Pyr-driven respiration in cells treated with the candidate compounds, allowing for logarithmic dose–response curves to be generated, and 50% inhibitory concentrations (IC50) to be calculated (Fig. 1, D–G). Finally, complex I and […] were injected to halt respiration and end the assay. […] In this regard, the fluoro-aminocarboxycoumarin derivative C4 has been designated as the lead candidate for further investigation.
(§1) Permeabilized cell assays were performed using rPFO as described previously. 4T1 cells were seeded (20,000 cells/well) onto Seahorse XFe96 well plates and incubated overnight in growth media at 37 °C and 5% CO2 for adherence. On the day of the assay, growth media were aspirated and replaced with MAS buffer (70 mM sucrose, 220 mM mannitol, 10 mM potassium phosphate monobasic, 5 mM magnesium chloride, 2 mM Hepes, and 1 mM EGTA) after 3X rinse of growth media to remove serum and endogenous metabolic substrates, and incubated at 37 °C in a non-CO2 incubator. Respective inhibitor and substrate milieu's were prepared in MAS buffer for port injections A–D at 8X, 9X, 10X, and 11X the target cell concentrations to account for intrinsic dilution factor of in situ injections of each port. […] Final substrate concentrations for specific tests were as follows: (5 mM Pyr , 0.5 mM Mal, 2 mM DCA; 10 mM glutamate, 0.5 mM Mal, 2 mM DCA; 10 mM succinate, 2 μM rotenone; 20 mM methyl Pyr, 5 mM Pyr, 0.5 mM Mal, and 2 mM DCA). ATP rate assays and mitochondrial stress tests were performed according to the manufacturer's (Agilent) instructions.

[2] = tested on: glutamate-driven respiration in 4T1 cells; assay: Seahorse glutamate-driven respiration in permeabilized 4T1 cells; format: cell-based, murine; conditions: Glu/Mal, candidate compounds 1 μM
Description: (§2) Although our initial experiments and previous literature illustrate the ability of the candidate compounds to inhibit Pyr-driven respiration, we sought to investigate the ability of candidate compounds to inhibit respiration fueled by other metabolic substrates, glutamate and succinate (Fig. 2). Glutamate, similar to Pyr oxidation, results in NADH equivalents that fuel complex I-mediated respiration, and succinate metabolism offers FADH2 for electrons in complex II-driven respiratory processes. […] To further validate the mode of action of the candidate compounds, a series of similar Seahorse experiments were employed (Fig. 2, A–C). In these experiments, 4T1 cells were first permeabilized and were then offered metabolic substrates Pyr (Pyr/Mal; Fig. 2A), glutamate (Glu/Mal, Fig. 2B), or succinate (Fig. 2C), and the resulting OCR was observed. As described previously, Mal and DCA were included in the substrate milieu of glutamate respiration experiments. […] To validate that inhibition of Pyr respiration is due to mitochondrial Pyr uptake and not other Pyr-processing enzymes (i.e., Pyr dehydrogenase), a parallel experiment using methyl pyruvate (MePyr) was employed (Fig. 2, E and F). MePyr is permeable to the mitochondrial membranes, where in the matrix, mitochondrial esterase hydrolysis activity provides Pyr.
as §1

[3] = tested on: succinate-driven respiration in 4T1 cells; assay: Seahorse succinate-driven respiration in permeabilized 4T1 cells; format: cell-based, murine; conditions: candidate compounds 1 μM
Description: as §2, §1

[4] = target: T1, mitochondrial pyruvate carrier (MPC); assay: Michaelis-Menten kinetics of mitochondrial pyruvate uptake (Seahorse OCR); format: cell-based, murine; conditions: permeabilized 4T1 cells; 10 nM inhibitor
Experimental: To further investigate the type of inhibition, we employed Michaelis–Menten experiments in modified Seahorse XFe96–based assays similar to described previously, and based on the model that Pyr uptake is directly coupled to NADH oxidation and oxygen consumption (Fig. 3A). In these experiments, 4T1 cells were permeabilized and were then administered varying concentrations of Pyr in the presence or the absence of 10 nM C3 or C4, respectively (Fig. 3, B–F). A rise in OCR indicated Pyr-driven respiration, where subsequent addition of FCCP stimulated maximal respiration, and substrate-dependent increases in OCR were observed and normalized to protein content (Fig. 3, B–F). In this regard, Michaelis–Menten curves were generated using the FCCP-stimulated OCR in C3- or C4-treated and -untreated cells where Michaelis–Menten parameters of maximal velocity (Vmax) and half-maximal substrate concentrations (Km) were calculated (Fig. 3, E–G). Michaelis–Menten assumptions include direct and irreversible substrate and carrier interaction that results in the OCRs and is analogous to standard enzymatic Michaelis–Menten models (Fig. 3A). […] Thus, C3 decreased the Vmax and increased the Km, not consistent with competitive inhibition where high substrate concentrations titrate out the inhibitor to reach intrinsic Vmax values. However, potential covalent bonding of inhibitor may limit the ability of Pyr to displace C3 from the active site, resulting in the observed “mixed” mode of inhibition.

[5] = target: T1, mitochondrial pyruvate carrier (MPC); assay: Methyl pyruvate reversal of inhibited Pyr-driven respiration; format: cell-based, murine; conditions: permeabilized 4T1 cells; 20 mM methyl Pyr
Description: as §2
Permeabilized cell assays were performed using rPFO as described previously. […]

[6] = Intrinsic CL in human liver microsomes; format: in vitro ADME; conditions: human, liver microsomes; exceeding the experimental endpoints
[7] = average ± SEM, read-out: IC50, inhibition of Pyr-driven respiration (Fig. 1G, unit inferred)
[8] = read-out: IC50, inhibition of Pyr-driven respiration

Row | SMILES | effect on Pyr-driven respiration [1] | IC50 [1, 7] [nM] | IC50 [1, 8] [nM] | effect on glutamate-driven respiration [2] | effect on succinate-driven respiration [3] | mode of inhibition [4] | reversal of Pyr-driven respiration effects by methyl pyruvate [5] | Vmax of Pyr-driven FCCP-stimulated OCR [4] [pmol/min] | half-life [6] [h]
1 | CN(Cc1ccc(F)cc1)c1ccc2cc(C(=O)O)c(=O)oc2c1 [C4, 7-((4-fluorobenzyl)(methyl)amino)-2-oxo-2H-chromene-3-carboxylic acid] | specifically inhibits | 16.6 ± 4.8 | 16 | without substantial effects | without substantial effects | competitive | – | – | –
2 | O=C(O)c1cc2ccc(N(c3ccc(F)cc3)c3ccc(F)cc3)cc2oc1=O [C1, 7-(bis(4-fluorophenyl)amino)-2-oxo-2H-chromene-3-carboxylic acid] | – | – | > 1000 | – | – | – | – | – | –
3 | CN(Cc1ccccc1)c1ccc2cc(C(=O)O)c(=O)oc2c1 [C3, 7-(benzyl(methyl)amino)-2-oxo-2H-chromene-3-carboxylic acid] | specifically inhibits | 18.3 ± 0.8 | 18 | without substantial effects | without substantial effects | mixed | completely reversed | 10.8 | > 2
4 | CN(c1ccc(F)cc1)c1ccc2cc(C(=O)O)c(=O)oc2c1 [C2, 7-((4-fluorophenyl)(methyl)amino)-2-oxo-2H-chromene-3-carboxylic acid] | specifically inhibits | 148 ± 8.9 | 147 | without substantial effects | without substantial effects | – | – | – | –

From PMC12355554, “Development of novel mitochondrial pyruvate carrier inhibitors for breast cancer treatment” (The Journal of Biological Chemistry, 2025)
